Entries after “also recorded” stand apart in the source; their conditions may differ.
Legend:
[1] = test system: phenylhydrazine (PHZ)-mediated stress-induced anemic mice; test: Sublethal PHZ (50 mg/kg)-induced hemolytic anemia, female mice, FF i.p.; format: in vivo
[2] = test system: phenylhydrazine (PHZ)-treated mice; test: FF/Arf i.p. in PHZ-treated mice at sub-lethal dose of 60 mg/kg; format: in vivo
[3] = test system: phenylhydrazine (PHZ)-treated mice; test: FF oral gavage in PHZ-treated mice at sub-lethal dose of 60 mg/kg; format: in vivo
[4] = test system: MDS patient-derived BM progenitors; test: Semi-solid methylcellulose culture of MDS patient-derived BM progenitors; format: cell-based, human
Source text: These findings prompted further testing to determine whether administration of FF in MDS patient-derived bone marrow (BM) samples improves erythroid differentiation in an ex vivo setting. To explore this, cells isolated from BM aspirates of de-identified MDS patients were procured. Next, the MDS patient-derived BM cells were placed in liquid erythroid differentiation culture, as previously described (Khajuria et al. (2018) Cell 173: 90-103), with or without FF treatment. […] To further validate this observation, the impact of FF from another vendor (Sigma) was tested on MDS patient-derived cells. […] Next, CD34+ progenitors were FACS-sorted from the MDS patient-derived BM aspirates and seeded in semi-solid methylcellulose culture media with vehicle (DMSO) or FF treatment. […] Therefore, the FDA-approved drug formoterol fumarate could be repurposed to reverse anemia in a range of hematological disorders.
After genome editing, primary human HSPCs were washed twice with 1× PBS and mixed with semi-solid methylcellulose medium (H4034 StemCell Technologies) by brief vortexing. Cells were plated at a density of 2000 per well in a 6-well plate followed by incubation in a humidified chamber at 37° C. for 14 days. Imaging of the colonies was performed using EVOS M5000 Imaging system® (ThermoFisher Scientific). […]

[5] = test system: RIOK2 KD HSPCs; test: Erythroid differentiation in RIOK2 knockdown HSPCs; format: cell-based, human; details: RIOK2 KD HSPCs vs DMSO; FIG. 6B, FIG. 45
Source text: (§1) Since RIOK2-deficient primary human HSPCs effectively model impaired erythropoiesis leading to anemia (Ghosh et la. (2022) Nat Immunol 23: 109-121), it was next investigated whether treatment with formoterol fumarate (FF) alleviates anemia in this in vitro model. To address this, RIOK2-proficient and deficient primary human HSPCs via CRISPR-Cas9 based genome-editing were generated (FIG. 6A), as previously described (Ghosh et al. (2022) Nat Immunol 23: 109-121). […] Since RPS14 deletion is reported to be MDS-genic (Ebert et al. (2008) Nature 451: 335-339; Schneider et al. (2016) Nat Med 22: 288-297), RPS14 was similarly knocked down in primary human HSPCs (FIG. 6C).
(§2) Primary human HSPCs were genome-edited, as previously described (Ghosh, S., Raundhal, M., Myers, S. A., Carr, S. A., Chen, X., Petsko, G. A., and Glimcher, L. H. (2022). Identification of RIOK2 as a master regulator of human blood cell development. Nat Immunol 23, 109-121).

[6] = test system: primary human HSPCs; test: Methylcellulose colony-formation assay, primary human HSPCs; format: cell-based; details: n=4 healthy donors; vs DMSO; FIG. 4
Experimental: Given the involvement of β2-AR in erythropoiesis, it was hypothesized that administration of long-acting selective β2-AR agonist FF might promote erythroid differentiation. To address this, primary human HSPCs were treated with varying doses of FF (Selleckchem). […] To ascertain if FF administration plays a role further upstream in the erythroid differentiation pathway, methylcellulose colony-formation assays were performed.
After genome editing, primary human HSPCs were washed twice with 1× PBS and mixed with semi-solid methylcellulose medium (H4034 StemCell Technologies) by brief vortexing. Cells were plated at a density of 2000 per well in a 6-well plate followed by incubation in a humidified chamber at 37° C. for 14 days. Imaging of the colonies was performed using EVOS M5000 Imaging system® (ThermoFisher Scientific). The colony-forming cells were then collected by triturating the wells using staining buffer and multi-color flow cytometry was performed as previously described (Li et al. (2014) Blood 124: 3636-3645).

[7] = test system: mice; details: cited from earlier work
[8] = test system: erythroid progenitors / bone marrow cells of wild-type mice; test: Gene expression (bulk RNA sequencing, qPCR) in FF-treated naive wild-type mice; format: in vivo
Source text: Data represented as mean±SEM. All comparisons are done with respect to Vehicle (DMSO-treated).
This example describes the effects of formoterol fumarate treatment on expression of genes that have been linked to erythropoiesis including Klf9 (Ren et al., (2018) Yi Chuan. 40(11):998-1006 and Zhang et al., (2017) Blood 130(20):2161-2170), Klf13, Klf11 (Emery (2007) J. Cell. Biochem 100(4):1045-55), Hif1a (Wellmann, et al., (2004) J. Cell Sci. 117:175-94; Feng et al., (2022) Nature 610(7933):783-790; and Chen et al., (2019) N Engl J Med 381:1011-1022), Epas1 (Scortegagna et al. (2003) Blood 102:1634-40), Ddit4 (Yoshikawa (2023) Cancer Biomark. 37(4): 217-225), Cirbp, and Rora (Kim et al. (2008) Arterioscler Throm Vasc Biol 28(10):1796-802 and Chauvet et al., (2004) Biochem. J. 384:79-85). Differential gene expression in naïve wild-type mice was analyzed by bulk RNA sequencing according to an example workflow as depicted in FIG. 86.

[9] = test system: ovariectomized rat models; details: ovariectomized rat models (Kellenberger et al. 1998); cited from earlier work
[10] = test system: ADRB2-deficient HSPCs; test: Erythroid differentiation in ADRB2-deficient HSPCs (specificity for β2-adrenoreceptors); format: cell-based, human; details: ADRB2 knocked down HSPCs; FIG. 6E-6F
Source text: (§3) Next, to validate the specificity of FF for β2-adrenoreceptors, ADRB2 was knocked down in primary human HSPCs and treated with FF.
as §2

[11] = test system: RPS14 KD HSPCs; test: Erythroid differentiation in RPS14 knockdown HSPCs; format: cell-based, human; details: RPS14 KD HSPCs vs DMSO; FIG. 6D, FIG. 46
Source text: as §1, §3, §2

[12] = 14 days of daily o.g., PHZ 60 mg/kg, FIG. 59

COc1ccc(C[C@@H](C)NC[C@H](O)c2ccc(O)c(NC=O)c2)cc1.O=C(O)/C=C/C(=O)O [FF, (E)-but-2-enedioic acid;N-[2-hydroxy-5-[(1R)-1-hydroxy-2-[[(2R)-1-(4-methoxyphenyl)propan-2-yl]amino]ethyl]phenyl]formamide]
body weights (absolute and % change) ([1]; 0.1/0.3 mg/kg daily i.p., female, FIG. 18A): sufficient to revive body weights; also recorded: increases absolute body weights and % change in body weights
HCT % and RBC counts ([1]; 0.1/0.3 mg/kg, FIG. 18B): produced long-term benefits in elevating HCT % and RBC counts
Hb production ([1]; 0.1/0.3 mg/kg, FIG. 18B): significantly enhanced Hb production
RBC parameters (Hb, HCT %, RBC numbers) in peripheral blood ([1]; 0.1/0.3 mg/kg, FIG. 18B): enhances and sustains RBC parameters
platelet counts ([1]; FIG. 18C): not statistically significant
WBC and monocyte counts ([1]; day 4 and over 14 days, FIG. 18C): provided an immediate boost to WBC and monocyte counts after PHZ administration, no long term benefits were observed; also recorded: increases WBC and monocyte counts in the peripheral blood after 4 days of daily i.p. injections but does not sustain the impact over 14 days
colony forming unit-erythroid (CFU-e) from BM ([2]; 0.3 mg/kg i.p., FIG. 39A): enhances colony forming unit-erythroid (CFU-e)
transferrin receptor expression in CFU-e derived from BMPs ([2]; FIG. 39B): transferrin receptor expression is enhanced
Hemoglobin (Hb) in peripheral blood ([2]; after 7 and 14 days of i.p., FIG. 35): increase Hemoglobin (Hb)
RBC parameters (HCT % and RBCs) in peripheral blood ([2]; after 7 days of i.p., FIG. 34): increases RBC parameters
LS-K and LSK cells in bone marrow progenitors ([2]; after 14 days of i.p., FIG. 36A-36B): increase LSK, LS-K, and mitochondrial activity
mitochondrial membrane potential (TMRE staining) in bone marrow progenitors ([2]; after 14 days of i.p., FIG. 36C): increase LSK, LS-K, and mitochondrial activity
megakaryocyte erythrocyte progenitors (MEP) in BM ([2]; after 14 days of i.p., FIG. 37A): increase megakaryocyte erythrocyte progenitors (MEP)
body weights ([2]; i.p., PHZ 60 mg/kg, FIG. 32): enhances body weights
platelets and WBCs in peripheral blood ([2]; i.p., PHZ 60 mg/kg, FIG. 33): do not affect platelets and WBCs
granulocyte monocyte progenitors (GMP) ([3]; 14 days of daily o.g., FIG. 60): does not affect granulocyte monocyte progenitors (GMP)
megakaryocytic progenitors (MkP) ([3]; 14 days of daily o.g., FIG. 60): increases megakaryocytic progenitors (MkP)
mitochondrial membrane potential (TMRE staining) in BMPs [3, 12]: increases viability and mitochondrial membrane potential
viability of BMPs [3, 12]: increases viability and mitochondrial membrane potential
body weights ([3]; o.g., PHZ 60 mg/kg, FIG. 56): does not affect body weights
RBC parameters (HCT % and Hb) in peripheral blood ([3]; o.g., PHZ 60 mg/kg, FIG. 57): increases RBC parameters
WBC and platelets in peripheral blood ([3]; o.g., PHZ 60 mg/kg, FIG. 58): does not affect WBC and platelets
viability, myelopoiesis (CFU-GM), megakaryopoiesis (CFU-Mk) ([4]; FIG. 11D): produced insignificant effects on the viability, myeloid and megakaryocytic differentiation; also recorded: does not affect viability, myelopoiesis (CFU-GM) or megakaryopoiesis (CFU-Mk)
erythroid progenitors BFU-E and CFU-E ([4]; n=23 MDS patients, vs DMSO, FIG. 11A-11C): significantly boosted both BFU-E and CFU-E formation; also recorded: enhances differentiation of erythroid progenitors in MDS patient-derived bone marrow cells
erythroid differentiation (CD235a) [5]: stimulated erythropoiesis in RIOK2-knockdown (KD) HSPCs; also recorded: to levels comparable with basal erythropoiesis in control cells; also recorded: increases erythroid differentiation (CD235a) in RIOK2 KD HSPCs; also recorded: markedly rescues erythropoiesis
BFU-E and CFU-E formation [6]: significantly increased blast-forming unit-erythroid (BFU-E) and colony-forming unit-erythroid (CFU-E) formation; also recorded: enhances blast forming unit-erythroid (BFU-E) and colony forming unit-erythroid (CFU-E) formation
muscle structure and function after injury ([7]; literature): improve muscle structure and function after injury
muscle mass ([7]; mice (Gehrig et al. 2010; Ryall et al. 2008)): increase muscle mass
HIF-1α expression in bone marrow cells ([8]; 0.5mg/kg ip 3× weekly, qPCR, FIG. 88A): enhances HIF-1α expression; also recorded: both significantly increased
VEGFA expression in bone marrow cells ([8]; 0.5mg/kg ip 3× weekly, qPCR, FIG. 88B): enhances; also recorded: both significantly increased
expression of Klf9, Klf13, Klf11, Hif1a, Epas1, Ddit4, Cirbp, Rora in erythroid progenitors from bone marrow ([8]; bulk RNA sequencing, FF-treated vs vehicle-treated, FIG. 87): increased in FF-treated mice
effects on bone [9]: anabolic effects on bone
erythroid differentiation [10]: failed to induce erythropoiesis in ADRB2-deficient HSPCs; also recorded: inability of FF to induce erythroid differentiation
erythroid differentiation (CD235a) [11]: significantly increased erythroid differentiation in RPS14 KD HSPCs; also recorded: increases erythroid differentiation (CD235a) in RPS14 KD HSPCs; also recorded: moderately rescues erythropoiesis

From patent publication US12697313B2, “Methods of treating anemia using formoterol or a pharmaceutically acceptable salt thereof” (Dana-Farber Cancer Institute, Inc., priority 2022, dated 2026)
